Results as given in patent EP1108710A1, “GUAIACOXYPROPANOLAMINES WITH ALPHA/BETA-ADRENERGIC BLOCKING ACTIVITY” (Cheng, Ing-Jun, priority 1998, dated 2000).

Experiments:
[1] = system: Wistar rat's isolated; reserpine pretreated right atrium beating rate and left atrium isometric contractions; experiment: Direct effect (intrinsic sympathomimetic activity) on reserpine-pretreated isolated atria
Description: Pharmacol 311, pp. 205-218 and pp 237-248 (1980). Wistar rats of weight between 200 ∼ 300 gm were used. 18 ∼ 24 hours before the experiment, 5mg/kg of reserpine was injected via abdominal cavity to remove all endogenous catecholamines. Prior experiment, Wistar rats were sacrificed, the heart was immediately removed and placed in Kreb's solution aerated with air mixture and maintained at room temperature. The right and left atria were carefully separated.

lung β 2-receptor = biological target: T1, lung β 2-receptor (Rattus norvegicus, UniProt P10608); experiment: [3H]CGP-12177 receptor binding on lung membranes; design: species or system Wistar rat
T1 construct: The heart and lung of rat were removed and placed in cold Tris buffer; from tissue; host or cells: rat lung membranes
Description: (§1) The heart and lung of rat were removed and placed in cold Tris buffer. Then the atria and lung were separated and weighed, before placing in cold Tris buffer with volume 20X their weights. […] The centrifugal fluid was again centrifuged at 10,000 gm for 12 minutes. The second centrifugal fluid was centrifuged for the third time at 29,000 gm for 15 minutes. The pellet finally obtained was re-suspended in Tris buffer as little as possible. […] Finally, the protein concentration was diluted with Tris buffer to maintain 200∼250 µ g protein per 100 µ l.
(§2) After reaction, 1ml of cold Tris buffer was added to terminate the binding reaction.

[2] = system: BayK8644 pretreated thoracic aorta; experiment: Isolated thoracic aorta pretreated with BayK8644, then contracted with concentrated potassium solution; design: species or system Wistar rat; conditions: 0.1 µ M of BayK8644 for 10 minutes; 10^-8 to 10^-5 M compound
Description: The effect of compound 1 on the thoracic aorta contraction caused by 75mM KCl. The Wistar rat's isolated thoracic aorta was contraction induced by 75mM of concentrated Potassium solution. […] Furthermore, the contraction effects of 10^-8M of compound 1- 9 were indicated on Table 1. (b) The effect of compound 1 on BayK8644 pretreated thoracic aorta: 0.1 µ M of BayK8644 was first added into the tissue trough. 10 minutes later, 75mM of concentrated Potassium solution was added to induce thoracic aorta contraction. When vasoconstriction had reached stability, different concentrations of (10^-8, 10^-7, 10^-6, and 10^-5M) compound 1 were separately added.

atrial β 1-receptor = biological target: T2, atrial β 1-receptor (Rattus norvegicus, UniProt P18090); experiment: [3H]CGP-12177 receptor binding on atrial membranes; design: species or system Wistar rat
T2 construct: The heart and lung of rat were removed and placed in cold Tris buffer; from tissue; host or cells: rat atrial membranes
Description: as §1, §2

normotensive rats = experiment: Heart rate and blood pressure in living (anaesthetized) rat, intravenous injection; assay type: in vivo, Wistar rats
From the text: Male Wistar rats, weighing 200 ∼ 300g were abdominal anaesthetized with pentobarbital sodium. Tracheal was cannulated to maintain normal respiration. Polyethylene tube was inserted into the left femoral vein to facilitate drug administration. A 3-way stopcock was used, with one end connected to a syringe for drug injection, while the other end was connected to the syringe filled with physiological saline. The latter was used to prevent residual drugs in the polyethylene tube after injection, which would affect experimental accuracy.
The right femoral artery was also inserted with polyethylene, and a 3-way stopcock was used tool, where one end was connected to heparin solution to prevent embolism. The other end was connected to a Disposable Diaphragm Dome, TA1019, and linked to a transducer. Through an amplifier, a recorder recorded the overall and average arterial pressure; heart rate to evaluate the effect of drug on blood pressure and heart rate.

[3] = system: guinea pig's isolated; reserpine pretreated tracheal; experiment: Direct effect (tracheal relaxation, intrinsic sympathomimetic activity) on reserpine-pretreated isolated trachea, with and without ICI 118,551
Description: Pharmacol 311, pp. 205-218 and pp.237-248 (1980). guinea pigs of weight between 350 ∼ 500 gm were used. 18 ∼ 24 hours before the experiment, 5mg/kg of reserpine was injected via abdominal cavity to remove all endogenous catecholamines. Prior experiment, guinea pigs were sacrificed, the tracheal was immediately removed and placed in Kreb's solution aerated with air mixture and maintained at room temperature of 22 ∼ 25°C. […] […] Then the tissue was repeatedly washed with Kreb's solution. After the tissue had been re-equilibrated for 60 minutes, ICI 118, 551 were administed. After treatment for 30 minutes, compound 1 of similar concentration was administered, and the intrinsic sympathomimetic activity of tracheal was observed.

[4] = system: Wistar rat's isolated thoracic aorta; experiment: Isolated thoracic aorta contraction caused by 75mM KCl; conditions: 10^-8M; thoracic aorta contraction caused by 75mM KCl
Description: After sacrificing Wistar rat of weight between 300 - 500 gm, the thoracic aorta was immediately removed and placed in cold Kreb's solution. The fatty connecting tissue surrounding the vessel wall was removed and the thoracic aorta was cut into rings of length 5 mm. The two ends of each ring was pieced and fixed with "Z" shaped platinum wires. […] When the results had been recorded for at least 35 minutes, the aorta was repeatedly rinsed with normal Kreb's solution. […] 30 minutes later, 75mM KCl was added again to induce vasoconstriction.

A7r5 cells = experiment: Fluorescence determination of intracellular calcium ion (fluo 3-AM, laser cytometer); assay type: cell-based; conditions: 10^-8, 10^-7, and 10^-6M for 5 minutes
Description: The intensity of fluo 3-AM was measured by line scanning at 30second interval with an argon laser at […].

β-adrenoreceptor (β1) [5] = biological target: T3, β-adrenoreceptor (β1) (Rattus norvegicus, UniProt P18090); experiment: β-adrenoceptor blocking action on electrically driven isolated left atrium (L-isoproterenol-induced contractility); design: species or system Wistar rat
T3 construct: The right and left atria were then separated; from tissue; host or cells: isolated rat right and left atria
Description: The inspontaneously-beating left atrial tissue was obtained from rat's isolated right atrial tissue experiments. […] The contraction rate was 1Hz and the resting tension 0.5 gm. After 60 minutes of equilibration, the following experiments were performed: • (a) Completion of cumulative concentration-response curve: similar to experimental method on isolated right atrium; • (b)Calculation of pA2 value: similar to calculation method on isolated right atrium.

β2-adrenoceptor = biological target: T4, β2-adrenoceptor (Cavia porcellus, UniProt Q8K4Z4); experiment: β-adrenoceptor blocking action on isolated trachea contracted with carbachol (L-isoproterenol relaxation); design: species or system guinea pig
T4 construct: a portion of tracheal approximately 4 cm long was removed; from tissue; host or cells: isolated guinea pig trachea (reserpine-pretreated animals)
Description: Guinea pigs of weight between 300 ∼500 gm were used. […] After the guinea pigs were sacrificed, a slit was made along the neck, and a portion of tracheal approximately 4 cm long was removed. […] The two ends of the tracheal were clamped with frog-heart shaped clamps, one end was fixed at the bottom of tissue bath filled with 20 ml of Kreb's solution, maintained at 37°C, while the other end was connected to a force transducer. Through a COULBOURN AT-High-Speed Videograph, long isometric contractions were recorded. […] Then the tracheal was repeatedly washed with Kreb's solution for 20 minutes and 10^-6 M of carbochol was added to cause contraction in the guinea pig's tracheal. When the contraction reached the maximum, every division of tracheal was used to complete two concentration response curve of L-isoproternol, one of them without administration of test compound and used as control; while the other curve was administered with compound 1 for 30 minutes before concentration response curve was completed. This is the test group. • (b) Calculation of pA2: similar to the calculation method for isolated right atrium experiment.

β-adrenoreceptor (β1) [6] = biological target: T3, β-adrenoreceptor (β1); experiment: β-adrenoceptor blocking action on isolated spontaneously beating right atrium (L-isoproterenol-induced heart rate increase, Schild plot); design: species or system Wistar rat
Description: The right and left atria were then separated. The spontaneously-beating right atria was clipped on both end by heart shaped clips, where one end was fixed at the bottom of 10ml of tissue bath made of physiological saline solution, and temperature maintained at 37°C. The other end of the atria was connected to a force transducer, and isometric contractions and beating rate of the right atria were recorded by COULBOURN AT-High-Speed VideoFigure. […] Cumulative administration interval was when the previous concentration reached its greatest effect, the next concentration would be immediately given.

T3 sequence (P18090 whole entry): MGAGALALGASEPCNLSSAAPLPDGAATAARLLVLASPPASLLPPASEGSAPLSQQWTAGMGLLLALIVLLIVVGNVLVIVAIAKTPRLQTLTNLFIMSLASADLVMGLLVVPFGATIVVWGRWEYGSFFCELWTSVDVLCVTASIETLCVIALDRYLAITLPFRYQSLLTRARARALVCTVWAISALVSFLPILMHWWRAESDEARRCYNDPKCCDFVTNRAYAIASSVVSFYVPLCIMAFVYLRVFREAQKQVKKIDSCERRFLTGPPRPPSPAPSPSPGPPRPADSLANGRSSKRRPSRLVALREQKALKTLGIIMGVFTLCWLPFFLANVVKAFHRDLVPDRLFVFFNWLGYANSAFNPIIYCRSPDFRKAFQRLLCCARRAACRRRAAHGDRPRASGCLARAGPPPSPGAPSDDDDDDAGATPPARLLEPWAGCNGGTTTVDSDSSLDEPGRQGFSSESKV
T4 sequence (Q8K4Z4 whole entry): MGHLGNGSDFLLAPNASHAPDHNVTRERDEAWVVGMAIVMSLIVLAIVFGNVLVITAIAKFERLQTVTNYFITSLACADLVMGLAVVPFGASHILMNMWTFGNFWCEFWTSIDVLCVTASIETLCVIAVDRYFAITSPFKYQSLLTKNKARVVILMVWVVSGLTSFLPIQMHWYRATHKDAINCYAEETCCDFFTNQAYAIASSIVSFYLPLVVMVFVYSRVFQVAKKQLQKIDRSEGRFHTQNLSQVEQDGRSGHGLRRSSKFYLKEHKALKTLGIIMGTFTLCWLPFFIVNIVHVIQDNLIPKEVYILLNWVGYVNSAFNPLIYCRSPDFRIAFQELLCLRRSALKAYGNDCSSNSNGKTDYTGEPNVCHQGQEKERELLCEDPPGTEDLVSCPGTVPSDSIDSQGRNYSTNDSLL
T1 sequence (P10608 whole entry): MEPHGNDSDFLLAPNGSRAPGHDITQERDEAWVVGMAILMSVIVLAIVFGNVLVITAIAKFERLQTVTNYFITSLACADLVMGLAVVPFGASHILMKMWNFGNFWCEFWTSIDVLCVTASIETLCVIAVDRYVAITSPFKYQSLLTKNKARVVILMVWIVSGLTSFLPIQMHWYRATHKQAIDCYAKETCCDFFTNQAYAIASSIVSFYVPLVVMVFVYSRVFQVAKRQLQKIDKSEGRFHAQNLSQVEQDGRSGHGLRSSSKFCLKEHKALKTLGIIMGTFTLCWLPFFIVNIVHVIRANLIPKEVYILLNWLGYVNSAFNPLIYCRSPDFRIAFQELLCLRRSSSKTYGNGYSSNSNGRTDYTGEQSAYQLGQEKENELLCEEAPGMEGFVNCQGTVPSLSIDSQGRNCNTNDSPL
T2 sequence (P18090 whole entry): as the sequence (P18090 whole entry) above

SMILES: COC(=O)C1=C(C)NC(C)=C(C(=O)OC)C1c1ccc(OCC(O)CNC(C)(C)C)c(OC)c1 (stereo not shown) [compound 1]
- direct effect on right atrium beating rate and left atrium isometric contractions ([1]; cumulative administration, reserpine pretreated): could not increase the beating rate and isometric contractions
- concentration with blocking effect on beating rate and isometric contractions ([1]; reserpine pretreated atria): ≥ 10^-5 M
- Ki (lung β 2-receptor): 631 nM
- effect of BayK8644 pre-treatment on the compound's vascular effect [2]: pre-treatment with BayK8644 would affect vasoconstriction function
- Ki (atrial β 1-receptor): 245 nM
- effect on blood pressure and heart rate (normotensive rats; intravenous injection of 0.5 mg/kg): a decrease in heart rate was shown
- effect on blood pressure and heart rate (normotensive rats; intravenous injection, 0.1, 0.25, 0.5, 1.0, 2.0 mg/kg, normotensive rats): continuous dose-dependent blood pressure lowering effect without increasing heart rate
- duration of blood pressure lowering effect (normotensive rats; intravenous injection, normotensive rats): approximately 1 hour
- Lowering of Blood Pressure (normotensive rats; lmg/kg, via femoral vein, rats): 70± 3 mm Hg
- Reduction of Heart Rate (normotensive rats; lmg/kg, via femoral vein, rats): 30± 2 beats/min
- tracheal relaxation effect after pretreatment with ICI 118, 551 [3]: concentration-dependently shifting parallel to the right
- tracheal relaxation effect ([3]; cumulative administration 10^-10∼3x10^-6 M, reserpine pretreated): dose-dependant tracheal relaxation effect
- Aorta Relaxation [4]: 30± 3%
- calcium ion influx effect of KCl ([Ca^2+]i) (A7r5 cells; 50mM KCl): significantly blocked
- calcium ion influx effect of BayK8644 ([Ca^2+]i) (A7r5 cells; 10 µ M BayK8644): significantly blocked
- blocking of heart contractility increment effect of L-isoproterenol (β-adrenoreceptor (β1) [5]; isolated left atrium, three concentrations of compound): could competitively block the heart contractility increment effect of L-isoproterenol
- pA2 value (β-adrenoreceptor (β1) [5]; left atrium contractility, against L-isoproterenol): 6.91±0.26
- pA2 value (β2-adrenoceptor; guinea pig's isolated tracheal, against L-isoproterenol): 7.09±0.54
- blocking of tracheal relaxation effect of L-isoproterenol (β2-adrenoceptor; trachea contracted with 10^-6 M CARBACHOL): could competitively block the effect of L-isoproterenol
- selectivity ratio of β1 type adrenoceptor (effect on right atrium relative to tracheal) (β-adrenoreceptor (β1) [6]; from the average pA2 difference between right atrium and tracheal): 1.32 X
- pA2 value (β-adrenoreceptor (β1) [6]; isolated right atrium, against L-isoproterenol): 7.21±0.32
- blocking of heart rate increment effect of L-isoproterenol (β-adrenoreceptor (β1) [6]; isolated right atrium, three concentrations of compound): could competitively block the heart rate increment effect of L-isoproterenol
